{
  "source": "patent US9458437B2",
  "about": "“Neuroprotective peptides that inhibit interaction between palmitoyl acyl transferase zinc-finger DHHC type containing 17 (zD17) and c-jun N-terminal kinase (JNK)” (The University of British Columbia, priority 2011, dated 2016)",
  "key": {"zD17-JNK3 interaction": {"target": "zD17-JNK3 interaction (Rattus norvegicus, UniProt P49187)", "sequence (P49187 whole entry)": "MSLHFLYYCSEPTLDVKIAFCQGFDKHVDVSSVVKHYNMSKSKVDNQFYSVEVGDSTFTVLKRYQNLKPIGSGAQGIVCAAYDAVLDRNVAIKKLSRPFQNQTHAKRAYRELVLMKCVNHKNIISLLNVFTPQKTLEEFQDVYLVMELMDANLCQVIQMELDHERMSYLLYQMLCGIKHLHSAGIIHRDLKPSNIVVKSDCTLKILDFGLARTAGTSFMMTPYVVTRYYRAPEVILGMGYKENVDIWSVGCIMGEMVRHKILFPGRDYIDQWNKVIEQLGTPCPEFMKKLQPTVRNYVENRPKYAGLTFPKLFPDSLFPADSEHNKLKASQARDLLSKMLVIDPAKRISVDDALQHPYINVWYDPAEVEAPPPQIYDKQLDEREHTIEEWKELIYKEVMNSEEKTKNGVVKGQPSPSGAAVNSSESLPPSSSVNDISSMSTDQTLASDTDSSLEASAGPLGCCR", "assay": "co-immunoprecipitation of zD17 with JNK3 in cortical neuronal cultures", "format": "cell-based", "set-up": "diminished the co-immunoprecipitation of zD17 with JNK3; endogenous in cells; host or cells: primary cortical neurons of embryonic (E18-19) Wistar rat", "settings": "for zD17-JNK3 interaction (co-immunoprecipitation), baseline: no NMDA", "experimental": "(§1) All animal experiments were approved by the Animal Care Committee of the University of British Columbia. Primary cortical cultures were prepared from Wistar rat (UBC Animal Care Centre, Vancouver, BC, Canada) brains at embryonic days 18-19. Cultures were maintained in Neurobasal medium supplemented with B27 and 0.5 mM glutamax (Invitrogen™) as described previously (Yang et al., 2009).\n(§2) The protocols for protein extraction have been described previously (Yang et al., 2009). For co-immunoprecipitation, cultured cells were washed with ice-cold PBS followed by incubation with 0.5 ml Gentle Lysis Buffer (GLB) containing 25 mM Tris-HCl (pH 7.4), 2 mM EDTA, 1 mM EGTA, 10 mM NaCl, 0.5% Triton X-100 and 10% Glycerol supplemented with the Complete Protease Inhibitor Tablets (Roche Applied Science™, Indianapolis, Ind., USA) and 1 mM PMSF. Total protein concentration was determined with the BioRad™ Protein Assay kit. Lysates were first precleaned by incubating with Protein A-Sepharose beads (Roche Applied Science™) for 1 h at 4° C., followed by incubation with indicated antibodies (>16 h at 4° C.) and protein A Sepharose bead (2 h at 4° C.). Lysates of rat brain tissues were precleaned with IgG and protein A-beads. Immunoprecipitates were washed three times with GLB buffer; boiled in 2× loading buffer with 1 mM dithiothreitol (DTT) for 3 min; and analyzed with SDS-PAGE as described previously (Yang et al., 2009). The relative intensities of the bands on immunoblots were analyzed and quantified using Image J™ (NIH)."}, "zD17-JNK1 interaction": {"target": "T1, zD17-JNK1 interaction (Rattus norvegicus, UniProt P49185)", "T1 construct": "endogenous in cells; host or cells: primary cortical neurons of embryonic Wistar rat", "T1 sequence (P49185 whole entry)": "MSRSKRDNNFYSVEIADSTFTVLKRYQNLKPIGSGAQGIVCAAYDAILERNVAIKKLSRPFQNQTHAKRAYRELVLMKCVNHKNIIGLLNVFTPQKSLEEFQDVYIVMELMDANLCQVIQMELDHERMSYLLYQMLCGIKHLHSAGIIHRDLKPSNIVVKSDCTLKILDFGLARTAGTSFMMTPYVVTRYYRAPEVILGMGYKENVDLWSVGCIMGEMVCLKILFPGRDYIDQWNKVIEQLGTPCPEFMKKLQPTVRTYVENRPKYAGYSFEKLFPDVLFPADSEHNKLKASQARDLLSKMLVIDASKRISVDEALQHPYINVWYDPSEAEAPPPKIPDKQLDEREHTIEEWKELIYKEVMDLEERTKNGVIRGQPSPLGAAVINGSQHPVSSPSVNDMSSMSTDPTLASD", "assay": "co-immunoprecipitation of zD17 with JNK1 in neuronal cultures", "format": "cell-based", "experimental": "as §1\nas §2, with “Lysates were first precleaned by incubating with Protein A-Sepharose beads (Roche Applied Science™) for 1 h at 4° C., followed by incubation with indicated antibodies (>16 h at 4° C.) and protein A Sepharose bead (2 h at 4° C.). Lysates of rat brain tissues were precleaned with IgG and protein A-beads.” left out"}, "zD17-JNK2 interaction": {"target": "T2, zD17-JNK2 interaction (Rattus norvegicus, UniProt P49186)", "T2 construct": "endogenous in cells; host or cells: primary cortical neurons of embryonic Wistar rat", "T2 sequence (P49186 whole entry)": "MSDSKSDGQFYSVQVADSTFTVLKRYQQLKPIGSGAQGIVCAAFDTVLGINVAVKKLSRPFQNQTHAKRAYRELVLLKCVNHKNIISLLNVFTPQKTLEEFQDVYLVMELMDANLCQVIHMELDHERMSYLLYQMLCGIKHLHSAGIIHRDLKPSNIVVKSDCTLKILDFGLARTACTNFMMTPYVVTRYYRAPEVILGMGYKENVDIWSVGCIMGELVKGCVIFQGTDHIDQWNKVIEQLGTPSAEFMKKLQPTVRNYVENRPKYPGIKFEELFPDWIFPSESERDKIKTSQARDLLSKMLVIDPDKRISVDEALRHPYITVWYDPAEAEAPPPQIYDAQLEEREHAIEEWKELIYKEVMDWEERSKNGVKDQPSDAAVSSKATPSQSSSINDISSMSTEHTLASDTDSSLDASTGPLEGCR", "assay": "co-immunoprecipitation of zD17 with JNK2 in neuronal cultures", "format": "cell-based", "experimental": "as §1, §2"}, "cultured neurons": {"system": "cultured neurons", "assay": "axonal development in cultured neurons (Tau-1 labelling)", "format": "cell-based, rat", "experimental": "(§3) For biochemical studies, neurons were seeded in six-well culture plates with a density of 7.5×10^5 cells per well. For LDH assay and cell death detection, 24-well culture plates were used with a neuron density of 2.5×10^5 cells per well. Neurons of 14-17 days in vitro (DIV) were used for experiments. […] HEK 293 cells were maintained in DMEM (Invitrogen™) supplemented with 10% fetal bovine serum and 1% penicillin/streptomycin. For protein expression in cell lines, cells were transfected with Calcium Phosphate Transfection reagent (Promega™, San Luis Obispo, Calif., USA) and used 24 h later as described previously (Yang et al., 2009). The JNK inhibitor, L-JNKI, was purchased from Alexis Biochemicals™ (San Diego, Calif.). Thrombin was obtained from BIOPUR™ (Bubendorf, Switzerland). Other assay reagents without indication were obtained from Sigma™.\nCultured hippocampal neurons on glass coverslips were used for immunostaining. After treatments indicated in the text, neurons were fixed with 2% paraformaldehyde for 3 min at room temperature followed by permeabilization with ice-cold methanol for 10 min at −20° C. The coverslips were then washed three times with PBS and immunostained with appropriate antibodies dissolved in PBS for 1 h at room temperature. After washing three times with PBS, coverslips were incubated with Alexa-labeled secondary antibodies from Invitrogen for an additional 1 h. For mitochondrial detection, neuronal cultures were incubated at 37° C. for 30 min with 2 μM MitoTracker-TR (Invitrogen™). Coverslips were then fixed and mounted with ProLong Gold Antifade Reagent (Invitrogen™). Fluorescence was captured using a Zeiss Observer Z1™ microscope and all images were analyzed with ImageJ™ and processed using Adobe Photoshop™."}, "neuronal cultures": {"system": "neuronal cultures", "assay": "LDH assay and PI staining, NMDA excitotoxicity-induced neuronal cell death", "format": "cell-based, rat", "settings": "pretreatment, NMDA challenge 1 h, 24 h survival", "experimental": "as §3\nNeuronal cultures were challenged with indicated concentrations of NMDA for 1 h, followed by 24 h survival. The release of lactate dehydrogenase (LDH) was measured with an in vitro toxicology assay kit (Sigma™) according to the manufacturer's instructions. Spectrophotometric measurement was performed on a Multilabel Plate Reader (Envision™ 2103, Perkin Elmer™). The LDH reading represents the primary absorbance at a wavelength of 490 nm after subtraction of background absorbance at 690 nm. LDH readings were then converted to a percentage of neuronal death by dividing by the readings from cultures incubated with 1% triton for 15 min representing total LDH. Following the LDH assay, propidium iodide (PI) (Sigma™) was added to the medium at a final concentration of 1 μg/ml and neurons were stained for 30 min at 30° C. After fixation with 4% paraformaldehyde, neurons were washed with 1×PBS and stained with Hoechst™ 33342 (Sigma™). The fluorescence of PI and Hoechst™ were examined with laser microscopy and analyzed with ImageJ™."}, "JNK3": {"target": "T3, JNK3 (Rattus norvegicus, UniProt P49187)", "T3 construct": "cell lysates were prepared and JNK was immunoprecipitated with specific antibodies; endogenous in cells; host or cells: rat primary neuronal cultures; JNK3 immunoprecipitated from lysate", "T3 sequence (P49187 whole entry)": "as the sequence (P49187 whole entry) above", "assay": "kinase assay (KA) on JNK3 immunoprecipitated from cell lysates", "format": "cell-based", "experimental": "JNK activity was measured with an in vitro kinase assay as described elsewhere (see, for e.g.: Khatlani et al., 2007). Briefly, cell lysates were prepared and JNK was immunoprecipitated with specific antibodies. The immnoprecipitates were then resuspended in 1× kinase buffer (Cell Signaling Technology™) supplemented with 200 μM ATP and 250 μg/ml GST-c-jun (1-89), and incubated at 30° C. for 30 min. Reactions were terminated by the addition of SDS-PAGE sample buffer. Phosphorylated c-jun was resolved by SDS-PAGE and detected with anti-p-c-jun."}},
  "data": [
    {"compound": "CCCCCCCCCCCCCCC(Br)C(=O)O", "note": "(stereo not drawn) [2-BrPA, 2-bromopalmitate]", "values": [
      {"measurement": "zD17-JNK3 interaction (co-immunoprecipitation), baseline", "setting": "zD17-JNK3 interaction", "result": "robustly enhanced"}
    ]},
    {"compound": "N[C@@H](CCC(=O)O)C(=O)O", "note": "[Glutamate, glutamate]", "values": [
      {"measurement": "zD17 interaction with JNK3, fold increase compared with control", "setting": "zD17-JNK3 interaction", "result": "2.6±0.2", "unit": "fold"},
      {"measurement": "zD17 interaction with JNK1, fold increase compared with control", "setting": "zD17-JNK1 interaction", "result": "1.4±0.1", "unit": "fold"},
      {"measurement": "zD17 interaction with JNK2, fold increase compared with control", "setting": "zD17-JNK2 interaction", "result": "1.7±0.2", "unit": "fold"}
    ]},
    {"compound": "CN[C@H](CC(=O)O)C(=O)O", "note": "[NMDA, N-methyl-D-aspartic acid]", "values": [
      {"measurement": "zD17 interaction with JNK3, fold increase compared with control", "setting": "zD17-JNK3 interaction", "result": "2.5±0.3", "unit": "fold"},
      {"measurement": "zD17 interaction with JNK1, fold increase compared with control", "setting": "zD17-JNK1 interaction", "result": "1.4±0.1", "unit": "fold"},
      {"measurement": "zD17 interaction with JNK2, fold increase compared with control", "setting": "zD17-JNK2 interaction", "result": "2.1±0.4", "unit": "fold"}
    ]},
    {"compound": "Oc1c2ccccc2c2c3c(cccc13)N=N2", "note": "[SP600125, reference compound]", "values": [
      {"measurement": "axon length", "setting": "cultured neurons; SP600125 incubation, control 161.2±3.9", "result": "84.9±1.6", "unit": "%"},
      {"measurement": "axon initiation rate normalized to control", "setting": "cultured neurons; incubation of cultured neurons, Tau-1 marker", "result": "18.2±4.1", "unit": "%"}
    ]},
    {"compound": "IL-1β: cytokine used to induce inflammation stress", "values": [
      {"measurement": "fold increase of zD17-JNK3 interaction", "setting": "zD17-JNK3 interaction; 10 ng/ml, 16 h", "result": "1.88±0.23", "unit": "fold"}
    ]},
    {"compound": "MTPLMWAAYGTGSVGPTRLL (NIMoEmut NIMoE sequence with point mutations on three charged amino acids at positions 10, 12, and 15) [reference compound]", "values": [
      {"measurement": "excitotoxicity-induced cell death as measured by LDH release and PI staining", "setting": "neuronal cultures", "result": "no protective effects"},
      {"measurement": "enhancement of the zD17-JNK3 interaction induced by NMDA/excitotoxicity", "setting": "zD17-JNK3 interaction", "result": "did not selectively block enhancement"},
      {"measurement": "enhancement of JNK3 activity induced by NMDA", "setting": "JNK3; neuronal cultures", "result": "did not selectively block enhancement"}
    ]},
    {"compound": "NVKGESALDLAKQ (listed as Homo sapiens) [DIPep1, control peptide derived from an unrelated region of zD17 (255-267), reference compound]", "values": [
      {"measurement": "excitotoxicity-induced cell death as measured by LDH release and PI staining", "setting": "neuronal cultures", "result": "no protective effects"}
    ]},
    {"compound": "TNF-α", "values": [
      {"measurement": "fold increase of zD17-JNK3 interaction", "setting": "zD17-JNK3 interaction; 50 ng/ml, 6 h", "result": "1.53±0.11", "unit": "fold"}
    ]},
    {"compound": "TPLHWATRGGHLSMV (listed as Homo sapiens) [NIMoD, peptide comprising motif-D of zD17, fused to HIV-1 Tat transduction domain]", "values": [
      {"measurement": "zD17-JNK3 interaction (co-immunoprecipitation), baseline", "setting": "zD17-JNK3 interaction", "result": "significantly diminished"},
      {"measurement": "JNK3 basal activity", "setting": "JNK3; neuronal cultures", "result": "reduction of JNK3 basal activity"},
      {"measurement": "JNK3 basal activity, fold change to control", "setting": "JNK3; pretreatment of cells 1 μM for 2 h", "result": "0.72±0.07", "unit": "fold"}
    ]}
  ]
}
